From ChEMBL document CHEMBL5465560, “Selectivity Literature for EUbOPEN Chemogenomic Library” (2024)
One block for each molecule: values may come before it.

Columns and labels:
[1] = target: T1, Serine/threonine-protein kinase Chk1 (Homo sapiens) (UniProt O14757); experiment: Selectivity interaction (Millipore kinase profiler) EUB0000124b CHEK1; conditions: at 10 µM
T1 sequence (whole entry): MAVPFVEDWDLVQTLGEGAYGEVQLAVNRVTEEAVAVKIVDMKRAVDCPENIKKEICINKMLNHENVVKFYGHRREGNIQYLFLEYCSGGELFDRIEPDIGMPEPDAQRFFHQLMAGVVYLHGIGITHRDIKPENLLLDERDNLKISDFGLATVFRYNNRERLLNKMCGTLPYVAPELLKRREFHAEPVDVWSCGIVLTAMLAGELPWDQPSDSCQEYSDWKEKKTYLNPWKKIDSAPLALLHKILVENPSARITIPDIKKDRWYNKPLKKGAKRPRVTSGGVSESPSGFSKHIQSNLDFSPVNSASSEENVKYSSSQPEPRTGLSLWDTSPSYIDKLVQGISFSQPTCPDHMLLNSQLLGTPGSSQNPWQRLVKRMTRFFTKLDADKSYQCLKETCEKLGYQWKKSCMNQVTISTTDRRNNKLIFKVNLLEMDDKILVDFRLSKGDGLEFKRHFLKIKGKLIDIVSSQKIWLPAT

[2] = target: Calcium/calmodulin-dependent protein kinase type 1 (Homo sapiens) (UniProt Q14012); experiment: Selectivity interaction (KinomeScan (DiscoverX)) EUB0001049a CAMK1; conditions: at 1 µM
Calcium/calmodulin-dependent protein kinase type 1 (Homo sapiens), sequence (Q14012 whole entry, looked up): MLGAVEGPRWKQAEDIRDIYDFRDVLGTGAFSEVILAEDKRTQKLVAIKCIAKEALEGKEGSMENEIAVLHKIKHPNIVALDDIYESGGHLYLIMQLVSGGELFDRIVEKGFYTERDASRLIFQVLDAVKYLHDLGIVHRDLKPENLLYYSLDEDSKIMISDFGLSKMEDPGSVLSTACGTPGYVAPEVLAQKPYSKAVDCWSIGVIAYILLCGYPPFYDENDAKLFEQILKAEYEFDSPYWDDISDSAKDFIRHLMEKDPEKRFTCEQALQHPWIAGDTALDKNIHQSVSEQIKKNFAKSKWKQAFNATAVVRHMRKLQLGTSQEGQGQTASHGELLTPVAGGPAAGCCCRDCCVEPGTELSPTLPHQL

[3] = target: Protein arginine N-methyltransferase 6 (Homo sapiens, UniProt Q96LA8); conditions: at 1 µM
Protein arginine N-methyltransferase 6, sequence (Q96LA8 whole entry, looked up): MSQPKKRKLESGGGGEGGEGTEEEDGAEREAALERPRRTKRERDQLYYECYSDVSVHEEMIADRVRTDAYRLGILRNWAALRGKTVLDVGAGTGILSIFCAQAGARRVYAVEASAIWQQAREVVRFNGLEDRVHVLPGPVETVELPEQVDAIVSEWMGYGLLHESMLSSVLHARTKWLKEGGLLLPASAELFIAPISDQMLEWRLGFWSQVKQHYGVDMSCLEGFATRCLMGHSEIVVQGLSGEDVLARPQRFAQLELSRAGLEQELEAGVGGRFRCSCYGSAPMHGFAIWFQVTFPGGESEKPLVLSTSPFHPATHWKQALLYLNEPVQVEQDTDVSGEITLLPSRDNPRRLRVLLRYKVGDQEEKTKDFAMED

[4] = target: T2, Histone-lysine N-methyltransferase SETD7 (Homo sapiens) (UniProt Q8WTS6); experiment: Selectivity interaction (Methyltransferase screen (radiometric assays, panel of 8 PRMTs, 21 protein lysine methyltransferases, 3 DNA methyltransferases, and one RNA methyltransferase)) EUB0000271b SETD7
T2 sequence (whole entry): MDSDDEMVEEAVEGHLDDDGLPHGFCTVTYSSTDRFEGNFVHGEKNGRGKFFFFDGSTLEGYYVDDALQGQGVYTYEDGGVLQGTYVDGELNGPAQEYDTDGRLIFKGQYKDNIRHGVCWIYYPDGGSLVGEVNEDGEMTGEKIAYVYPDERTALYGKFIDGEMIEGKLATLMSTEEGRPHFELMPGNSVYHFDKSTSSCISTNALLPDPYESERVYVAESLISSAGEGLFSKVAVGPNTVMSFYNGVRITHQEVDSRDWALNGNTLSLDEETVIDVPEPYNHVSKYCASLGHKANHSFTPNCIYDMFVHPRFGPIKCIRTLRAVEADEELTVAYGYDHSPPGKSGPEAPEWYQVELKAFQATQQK

[5] = target: Phosphatidylinositol 4,5-bisphosphate 3-kinase catalytic subunit gamma isoform (Homo sapiens) (UniProt P48736); experiment: Selectivity interaction (KinomeScan (DiscoverX)) EUB0000595a PIK3CG; conditions: at 10 µM
Phosphatidylinositol 4,5-bisphosphate 3-kinase catalytic subunit gamma isoform (Homo sapiens), sequence (P48736 whole entry, looked up, canonical isoform): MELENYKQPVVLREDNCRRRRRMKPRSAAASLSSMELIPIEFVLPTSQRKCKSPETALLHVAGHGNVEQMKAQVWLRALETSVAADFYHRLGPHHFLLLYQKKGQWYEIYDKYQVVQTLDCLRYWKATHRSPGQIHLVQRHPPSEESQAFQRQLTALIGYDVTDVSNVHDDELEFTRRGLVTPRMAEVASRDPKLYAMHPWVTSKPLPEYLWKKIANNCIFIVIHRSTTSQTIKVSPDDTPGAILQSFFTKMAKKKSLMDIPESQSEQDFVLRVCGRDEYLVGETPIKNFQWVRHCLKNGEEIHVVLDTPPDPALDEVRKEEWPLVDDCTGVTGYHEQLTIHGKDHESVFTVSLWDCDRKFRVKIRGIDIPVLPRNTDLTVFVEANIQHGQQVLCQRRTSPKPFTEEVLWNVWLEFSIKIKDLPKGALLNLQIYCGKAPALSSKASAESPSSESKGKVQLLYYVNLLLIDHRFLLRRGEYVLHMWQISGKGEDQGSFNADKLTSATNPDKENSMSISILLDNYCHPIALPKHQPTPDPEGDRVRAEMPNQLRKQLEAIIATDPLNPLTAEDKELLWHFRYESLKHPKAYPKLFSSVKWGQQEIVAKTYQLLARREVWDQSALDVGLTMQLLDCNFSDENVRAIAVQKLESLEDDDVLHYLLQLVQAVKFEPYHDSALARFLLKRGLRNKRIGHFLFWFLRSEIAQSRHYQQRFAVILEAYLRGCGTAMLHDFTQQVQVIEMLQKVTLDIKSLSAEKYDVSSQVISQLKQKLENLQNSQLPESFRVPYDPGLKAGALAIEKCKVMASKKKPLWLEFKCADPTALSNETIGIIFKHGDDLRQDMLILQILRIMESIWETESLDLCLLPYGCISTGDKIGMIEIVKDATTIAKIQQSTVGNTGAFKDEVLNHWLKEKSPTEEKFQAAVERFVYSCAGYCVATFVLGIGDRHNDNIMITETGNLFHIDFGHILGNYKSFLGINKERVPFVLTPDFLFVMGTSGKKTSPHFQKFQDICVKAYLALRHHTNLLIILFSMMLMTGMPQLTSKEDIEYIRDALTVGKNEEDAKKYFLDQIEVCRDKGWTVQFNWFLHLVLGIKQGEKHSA

[6] = target: Dual specificity mitogen-activated protein kinase kinase 1 (Homo sapiens, UniProt Q02750); experiment: Selectivity interaction (KinomeScan (DiscoverX)) EUB0000595a MAP2K1; conditions: at 10 µM
Dual specificity mitogen-activated protein kinase kinase 1, sequence (Q02750 whole entry): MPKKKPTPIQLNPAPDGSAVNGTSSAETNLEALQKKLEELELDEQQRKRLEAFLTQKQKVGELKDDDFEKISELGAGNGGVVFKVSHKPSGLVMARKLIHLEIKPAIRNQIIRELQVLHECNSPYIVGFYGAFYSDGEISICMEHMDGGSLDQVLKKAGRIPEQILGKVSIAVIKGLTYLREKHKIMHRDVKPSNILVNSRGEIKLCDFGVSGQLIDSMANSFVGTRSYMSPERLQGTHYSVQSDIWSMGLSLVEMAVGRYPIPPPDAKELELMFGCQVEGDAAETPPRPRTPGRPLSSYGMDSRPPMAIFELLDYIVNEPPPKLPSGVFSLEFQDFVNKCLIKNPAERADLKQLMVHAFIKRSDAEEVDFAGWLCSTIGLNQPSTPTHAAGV

[7] = target: T3, Serine/threonine-protein kinase 3 (Homo sapiens) (UniProt Q13188); experiment: Selectivity interaction (KinomeScan (DiscoverX)) EUB0000229b STK3; conditions: at 10 µM
T3 sequence (whole entry): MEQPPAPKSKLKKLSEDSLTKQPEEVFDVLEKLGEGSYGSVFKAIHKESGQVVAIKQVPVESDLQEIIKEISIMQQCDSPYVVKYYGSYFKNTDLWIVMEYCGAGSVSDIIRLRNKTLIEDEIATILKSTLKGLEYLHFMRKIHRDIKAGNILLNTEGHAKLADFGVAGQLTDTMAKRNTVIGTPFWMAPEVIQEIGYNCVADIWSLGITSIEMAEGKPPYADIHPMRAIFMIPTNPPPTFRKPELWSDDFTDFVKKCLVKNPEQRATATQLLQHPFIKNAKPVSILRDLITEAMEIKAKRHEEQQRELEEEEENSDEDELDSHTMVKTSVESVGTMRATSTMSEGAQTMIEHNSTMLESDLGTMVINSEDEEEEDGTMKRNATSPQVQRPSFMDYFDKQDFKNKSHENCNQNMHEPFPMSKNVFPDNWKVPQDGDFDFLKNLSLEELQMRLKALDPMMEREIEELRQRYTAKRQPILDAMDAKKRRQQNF

[8] = target: Ribosomal protein S6 kinase beta-2 (Homo sapiens) (UniProt Q9UBS0); experiment: Selectivity interaction (ProQinase) EUB0000171b RPS6KB2
Ribosomal protein S6 kinase beta-2 (Homo sapiens), sequence (Q9UBS0 whole entry): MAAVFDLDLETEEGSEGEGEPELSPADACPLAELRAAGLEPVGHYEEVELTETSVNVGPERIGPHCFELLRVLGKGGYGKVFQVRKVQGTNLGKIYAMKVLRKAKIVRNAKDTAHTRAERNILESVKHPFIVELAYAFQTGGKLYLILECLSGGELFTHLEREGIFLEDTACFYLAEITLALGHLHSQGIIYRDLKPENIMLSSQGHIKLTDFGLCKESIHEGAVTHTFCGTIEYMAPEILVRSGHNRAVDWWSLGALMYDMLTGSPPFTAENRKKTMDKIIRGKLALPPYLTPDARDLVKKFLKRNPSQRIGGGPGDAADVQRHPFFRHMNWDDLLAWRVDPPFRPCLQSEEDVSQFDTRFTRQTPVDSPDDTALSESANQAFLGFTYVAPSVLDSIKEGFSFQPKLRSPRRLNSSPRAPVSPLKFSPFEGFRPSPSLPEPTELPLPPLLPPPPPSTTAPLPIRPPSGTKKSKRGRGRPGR

[9] = target: Serine/threonine-protein kinase MRCK beta (Homo sapiens) (UniProt Q9Y5S2); experiment: Selectivity interaction (KinomeScan (DiscoverX)) EUB0000045b CDC42BPB
Serine/threonine-protein kinase MRCK beta (Homo sapiens), sequence (Q9Y5S2 whole entry): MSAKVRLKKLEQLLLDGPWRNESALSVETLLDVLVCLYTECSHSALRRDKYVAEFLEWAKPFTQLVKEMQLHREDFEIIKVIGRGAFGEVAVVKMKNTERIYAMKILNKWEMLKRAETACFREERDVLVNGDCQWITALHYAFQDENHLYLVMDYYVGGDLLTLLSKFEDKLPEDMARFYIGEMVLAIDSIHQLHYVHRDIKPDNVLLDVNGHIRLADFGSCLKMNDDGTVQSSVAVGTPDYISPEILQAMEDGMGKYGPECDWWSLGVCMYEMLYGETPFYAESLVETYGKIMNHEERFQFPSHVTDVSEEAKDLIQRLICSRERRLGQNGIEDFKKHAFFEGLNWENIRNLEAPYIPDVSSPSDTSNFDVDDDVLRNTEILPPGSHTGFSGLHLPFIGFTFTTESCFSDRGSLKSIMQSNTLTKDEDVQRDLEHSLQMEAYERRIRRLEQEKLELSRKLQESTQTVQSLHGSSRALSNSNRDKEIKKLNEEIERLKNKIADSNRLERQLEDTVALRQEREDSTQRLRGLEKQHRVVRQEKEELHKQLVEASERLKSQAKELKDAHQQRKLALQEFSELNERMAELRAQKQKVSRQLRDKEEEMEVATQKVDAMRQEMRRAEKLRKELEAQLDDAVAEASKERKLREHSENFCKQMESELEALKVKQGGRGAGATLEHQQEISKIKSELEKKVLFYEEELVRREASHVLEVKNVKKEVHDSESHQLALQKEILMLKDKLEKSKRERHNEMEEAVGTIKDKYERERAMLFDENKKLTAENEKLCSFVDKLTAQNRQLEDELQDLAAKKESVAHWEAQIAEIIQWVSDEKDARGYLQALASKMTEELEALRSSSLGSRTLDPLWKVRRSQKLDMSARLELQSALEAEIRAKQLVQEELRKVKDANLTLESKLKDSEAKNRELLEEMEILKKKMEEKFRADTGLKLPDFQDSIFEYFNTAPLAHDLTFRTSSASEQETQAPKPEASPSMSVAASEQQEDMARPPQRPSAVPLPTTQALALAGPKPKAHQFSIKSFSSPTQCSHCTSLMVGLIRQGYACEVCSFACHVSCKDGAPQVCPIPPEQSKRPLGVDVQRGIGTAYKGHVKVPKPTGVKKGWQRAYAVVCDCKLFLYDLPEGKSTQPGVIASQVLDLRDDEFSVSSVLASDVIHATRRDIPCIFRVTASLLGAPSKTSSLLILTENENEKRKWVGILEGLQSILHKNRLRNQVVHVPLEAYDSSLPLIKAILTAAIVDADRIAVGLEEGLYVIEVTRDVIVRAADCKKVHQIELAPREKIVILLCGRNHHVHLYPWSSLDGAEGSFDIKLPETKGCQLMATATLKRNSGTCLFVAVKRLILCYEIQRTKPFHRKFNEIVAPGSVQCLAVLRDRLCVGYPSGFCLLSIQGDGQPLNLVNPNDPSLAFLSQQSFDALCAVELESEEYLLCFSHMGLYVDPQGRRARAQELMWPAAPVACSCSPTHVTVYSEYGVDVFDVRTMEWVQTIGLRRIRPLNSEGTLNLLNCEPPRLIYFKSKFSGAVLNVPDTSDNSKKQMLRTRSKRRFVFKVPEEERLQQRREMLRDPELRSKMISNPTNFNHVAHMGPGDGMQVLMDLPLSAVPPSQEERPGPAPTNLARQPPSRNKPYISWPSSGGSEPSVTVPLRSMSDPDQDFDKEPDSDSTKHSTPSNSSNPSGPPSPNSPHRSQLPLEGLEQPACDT

[10] = target: Mitogen-activated protein kinase 14 (Homo sapiens, UniProt Q16539); experiment: Selectivity interaction (KinomeScan (DiscoverX)) EUB0000655a MAPK14; conditions: at 10 µM
Mitogen-activated protein kinase 14, sequence (Q16539 whole entry): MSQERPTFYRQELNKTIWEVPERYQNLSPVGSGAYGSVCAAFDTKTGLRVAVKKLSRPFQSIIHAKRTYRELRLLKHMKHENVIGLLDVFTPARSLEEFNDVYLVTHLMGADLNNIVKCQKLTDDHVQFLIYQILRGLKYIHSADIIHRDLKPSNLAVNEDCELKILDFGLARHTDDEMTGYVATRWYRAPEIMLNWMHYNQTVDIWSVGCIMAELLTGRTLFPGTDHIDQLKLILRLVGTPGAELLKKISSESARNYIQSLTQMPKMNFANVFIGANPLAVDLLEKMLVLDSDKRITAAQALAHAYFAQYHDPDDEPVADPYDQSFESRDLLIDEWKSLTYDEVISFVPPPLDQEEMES

[11] = target: T4, Dual specificity mitogen-activated protein kinase kinase 6 (Homo sapiens) (UniProt P52564); experiment: Selectivity interaction (KinomeScan (DiscoverX)) EUB0000618a MAP2K6; conditions: at 10 µM
T4 sequence (whole entry): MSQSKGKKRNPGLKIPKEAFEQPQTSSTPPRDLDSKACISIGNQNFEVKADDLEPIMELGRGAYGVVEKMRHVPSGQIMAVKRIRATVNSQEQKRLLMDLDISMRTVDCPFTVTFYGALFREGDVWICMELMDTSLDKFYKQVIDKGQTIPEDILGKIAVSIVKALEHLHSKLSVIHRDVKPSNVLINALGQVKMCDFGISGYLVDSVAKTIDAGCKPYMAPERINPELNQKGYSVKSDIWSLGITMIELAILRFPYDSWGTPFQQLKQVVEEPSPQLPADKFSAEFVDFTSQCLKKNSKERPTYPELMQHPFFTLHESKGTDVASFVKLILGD

[12] = target: T5, Phosphorylase b kinase gamma catalytic chain, liver/testis isoform (Homo sapiens) (UniProt P15735); experiment: Selectivity interaction (SelectScreen profiling (Invitrogen)) EUB0000607a PHKG2; conditions: at 2 µM
T5 sequence (whole entry): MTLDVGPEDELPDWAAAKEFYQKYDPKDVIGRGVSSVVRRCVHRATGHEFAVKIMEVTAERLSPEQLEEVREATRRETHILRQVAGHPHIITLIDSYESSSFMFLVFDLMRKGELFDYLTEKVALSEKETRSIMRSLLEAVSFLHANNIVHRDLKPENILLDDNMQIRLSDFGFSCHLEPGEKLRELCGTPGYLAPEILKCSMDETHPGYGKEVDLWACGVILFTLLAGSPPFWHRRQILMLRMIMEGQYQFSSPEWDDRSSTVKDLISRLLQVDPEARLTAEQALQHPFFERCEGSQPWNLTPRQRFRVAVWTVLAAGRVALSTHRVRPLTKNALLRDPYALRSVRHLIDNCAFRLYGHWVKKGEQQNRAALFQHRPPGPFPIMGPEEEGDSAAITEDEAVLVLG

[13] = target: Tyrosine-protein kinase ABL1 (Homo sapiens, UniProt P00519); experiment: Selectivity interaction (KinomeScan (DiscoverX)) EUB0000666a ABL1; conditions: at 10 µM

- % of control [1]: 113%
SMILES: CC(=O)Nc1cccc(-n2c(=O)n(C3CC3)c(=O)c3c(Nc4ccc(I)cc4F)n(C)c(=O)c(C)c32)c1

SMILES: COc1cc(Nc2nc(C)cc(-c3cnn4nc(OC)ccc34)n2)cc(C(F)(F)F)c1
- % of control [2]: 75%

- % activity [3]: > 90%
SMILES: CNCCN1CCC(c2cc(CN(C)C(=O)c3cccc(Oc4ccccc4)c3)ccn2)CC1

SMILES: Cc1cc(C)cc([C@@H]2c3cc(C)ccc3NC(=O)CN2C(=O)c2ccc(Br)s2)c1
- % of activity ([4]; at 1 µM): 95.3%
- % of activity ([4]; at 10 µM): 95.7%

SMILES: COCC(=O)NC/C=C/c1ccc2ncnc(Nc3ccc(Oc4ccc(C)nc4)c(C)c3)c2c1 [CP-724714]
- % of control [5]: 100%
- % of control [6]: 9.4%

SMILES: COc1cc(N(C)c2ccnc3ccc(C(F)(F)F)cc23)cc(OC)c1OC
- % binding [7]: 93%

- % of control ([8]; at 1 µM): 87%
- % of control ([8]; at 5 µM): 79%
SMILES: C=CC(=O)Nc1cccc(C(=O)Nc2ccc(Nc3cc(-c4[nH]c(SC)nc4C)ccn3)cc2)c1

SMILES: C=CC(=O)Nc1cc(-n2c(=O)ccc3cnc4ccc(-c5ccc(NS(C)(=O)=O)cc5)cc4c32)ccc1C
- % of control ([9]; at 1 µM): 100%
- % of control ([9]; at 10 µM): 100%

SMILES: CN(C)CCOc1ccc(-c2nc(-c3ccncc3)c(-c3ccc4c(c3)CC/C4=N\O)[nH]2)cc1
- % of control [10]: 85%

SMILES: O[C@H]1CC[C@H](Nc2ncc3nc(Nc4c(F)cc(F)cc4F)n([C@H]4CCOC4)c3n2)CC1
- % of control [11]: 88%

SMILES: CNC(=O)Nc1ccc(-c2nc(N3CC4CCC(C3)O4)c3cnn(C4CCC5(CC4)OCCO5)c3n2)cc1
- % of inhibition [12]: 12%

SMILES: O=C(NOC[C@H](O)CO)c1ccc(F)c(F)c1Nc1ccc(I)cc1F
- % of control [13]: 97%
